The values that follow come from US7115721B2, “Microorganism, its product and utilization thereof” (Astellas Pharma Inc., priority 2002, dated 2006).

Series [1] addresses Tyrosinase originating from mushroom. The series is described as follows: Inhibitory activity to tyrosinase originating from mushroom. Format: biochemical. Conditions: L-dopa substrate, pH 6.8, 25° C., 10 minutes. The method, then: Inhibitory Activity to Tyrosinase Originating from Mushroom Tyrosinase originating from mushroom (Sigma company) was dissolved in a 0.05 M phosphate buffer (pH 6.8) to a concentration of 20 U/ml. L-dopa was adjusted to a concentration of 0.3 mg/ml with a 0.05 M phosphate buffer (pH 6.8). A 96-well plate was charged with 30 μl of the L-dopa solution and 30 μl of solutions of the compound (I) of the present invention at various concentrations, immediately followed by mixing with 30 μl of the tyrosinase solution originating from mushroom. After incubation at 25° C. for 10 minutes, the absorbance at 450 nm was measured using a microplate reader.

Series [2] has as its system melanin pigmentation of skin after exposure to sunlight. The series is described as follows: Whitening effect on skin of subjects exposed to sunlight. The class given is in vivo, human. Conditions: for Whitening effect: applied morning and evening over four weeks, 20 subjects. As for the experimental part:
The whitening effect of the compound (I) of the present invention was measured according to the following method. 20 subjects were exposed to sunlight for […] from 11:00 a.m. to 1:00 p.m. over two days in summer. Five days after the exposure to sunlight, a water phase and an alcohol phase having compositions respectively shown in FIG. 5 and FIG. 6 were mixed and dissolved, and the solution was applied to the skin on the medial side of the upper arm of each exposed subject once for every morning and evening over four weeks. [table] [table] After four weeks, the whitening effect was judged for each subject. The effect was judged according to the following standards.

Series [3] relates to B16 melanoma (B-16/2D2 cells). The series is described as follows: Inhibitory activity to melanogenesis of B16 melanoma (extracellular and intracellular melanin, amount of proteins). Conditions: for IC50: Mus musculus, B16, 120 h. The class given is cell-based. The method, then:
Inhibitory Activity to Melanogenesis of B16 Melanoma
(§1) About 2.0×10^5/ampoule B16 melanoma cell strain preserved in a frozen state in liquid nitrogen was dissolved in a water bath at 37° C. and immediately suspended in 10 ml of a culture medium. After centrifugation at 800 rpm for five minutes, the supernatant liquid was discarded and the cells were suspended in 10 ml of a fresh culture medium. The suspension was again centrifuged under the same conditions, the supernatant liquid was discarded, and the cells were again suspended in a fresh culture medium.
(§2) About 4.0×10^5 cells were seeded in a 75 cm^2 flask. The cells were cultured at 37° C. in a 5% CO2 atmosphere for one week while replacing the medium every 2–3 days. The culture medium in which the cells have grown to bring the medium into a subconfluent state was discarded. The surface of the cultured cells was washed with PBS(−), following which the cells were stripped using 0.25% trypsin. A medium containing serum was added to terminate the trypsin reaction. After loosening the cells by pipetting, the cell suspension was transferred to a centrifugal tube. After centrifugation at 800 rpm for five minutes, the supernatant liquid was discarded and the cells were suspended in a fresh culture medium (not containing phenol red). The number of cells was counted using a cytometer.
The cell suspension was diluted with a medium (not containing phenol red) to make the cell concentration 2×10^5 cells/ml. The resulting suspension was seeded in a 96-well plate in an amount of 100 μl/well. The cells were incubated at 37° C. in a 5% CO2 atmosphere for one day. Solutions of the compound (I) of the present invention at various concentrations were prepared in a medium (not containing phenol red). The resulting solutions were added to a 96-well plate in an amount of 100 μl/well. The cells were incubated at 37° C. in a 5% CO2 atmosphere for five days and evaluated according to the following method.
1. Amount of Extracellular Melanin
The culture medium was transferred to an assay plate in an amount of 150 μl/well while taking care so that foam was not produced to measure OD450 using a microplate reader.
2. Amount of Intracellular Melanin
The plate containing the cells was inverted to discard the remaining culture medium. 0.1 N NaOH-0.1% Triton X-100 was added in an amount of 150 μl/well to dissolve the cells by pipetting. The culture medium was transferred to an assay plate in an amount of 100 μl/well to measure OD450 using a microplate reader.
Distilled water was added to the assay plate in an amount of 156 μl/well. Then, 4 μl/well of the cell solution remaining after measuring the amount of intracellular melanin was added. Next, 40 μl/well of a Bio-rad protein assay die solution was added, followed by shaking for two minutes. After allowing to stand for five minutes, OD590 was measured using a microplate reader.

Series [4] concerns the target T1, tyrosinase originating from B16 melanoma (Mus musculus, UniProt P11344).
T1 construct: The supernatant liquid was collected and preserved in ice until the time it was used (crude enzyme solution); endogenous in cells; host or cells: B16 melanoma cells, homogenate supernatant (crude enzyme solution)
T1 sequence (P11344 19-533): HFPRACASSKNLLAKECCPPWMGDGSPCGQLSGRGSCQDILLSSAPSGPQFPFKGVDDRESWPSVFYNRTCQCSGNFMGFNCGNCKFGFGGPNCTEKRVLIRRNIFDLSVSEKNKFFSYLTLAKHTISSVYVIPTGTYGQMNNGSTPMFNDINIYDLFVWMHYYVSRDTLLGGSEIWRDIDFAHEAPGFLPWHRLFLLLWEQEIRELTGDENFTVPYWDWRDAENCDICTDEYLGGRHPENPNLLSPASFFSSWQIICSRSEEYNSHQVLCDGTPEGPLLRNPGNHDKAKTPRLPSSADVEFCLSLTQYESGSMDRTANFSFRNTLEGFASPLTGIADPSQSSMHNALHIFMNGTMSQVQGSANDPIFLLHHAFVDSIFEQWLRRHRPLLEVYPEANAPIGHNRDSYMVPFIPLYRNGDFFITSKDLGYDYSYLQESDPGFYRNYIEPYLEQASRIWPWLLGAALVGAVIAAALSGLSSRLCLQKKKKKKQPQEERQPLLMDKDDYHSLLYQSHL
Nature of the series: Inhibitory activity to tyrosinase originating from B16 melanoma. The class given is biochemical. The note with it: crude enzyme solution, L-dopa substrate, pH 6.8, 25° C., two hours. As for the experimental part:
Inhibitory Activity to Tyrosinase Originating from B16 Melanoma
as §1
as §2, with “After centrifugation at 800 rpm for five minutes, the supernatant liquid was discarded and the cells were suspended in a fresh culture medium (not containing phenol red).” left out, “cytometer. […]” for “cytometer.”
L-dopa was adjusted to a concentration of 0.8 mg/ml with the 0.05 M phosphate buffer (pH 6.8). […] Then, the absorption at 475 nm was measured.

The mark [5] stands for this setting: concentration in which whitening actions were clearly exhibited.

Values after ≈ are worked out from the molar mass of the structure shown. Where two headings read alike, the source gives them in different places.

Turning to `[C-]#[N+]/C=C/c1ccc(O[C@@H]2O[C@@H](C)[C@H](O)[C@@H](O)[C@H]2O)cc1` [Compound (I), (E)-4-(2-isocyanovinyl)phenyl α-L-rhamnopyranoside], the “IC50 Mushroom tyrosinase” value in series [1] was determined as 0.0019 µg/mL (≈ 0.00652 µM). Further, the Whitening effect result in series [2] (0.1 wt % test agent) and in series [2] (0.3 wt % test agent) was “Good (50–80% of subjects exhibited a complete response or partial response)” in each case. For the same compound, the “Abnormalities of the skin (erythema, edema) or side effects” value in series [2] (topical application over four weeks in subjects) is listed as “neither abnormalities of the skin, such as erythema or edema, nor any side effects”. For the same compound, the IC50 – broadly, the concentration needed to halve the response being measured – in series [3] (read-out: IC50 Extracellular melanogenesis) was 0.052 µg/mL (≈ 0.179 µM); in series [3] (read-out: IC50 Intracellular melanogenesis), 0.074 µg/mL (≈ 0.254 µM); in series [3] (read-out: IC50 Protein synthesis) it was 0.9 µg/mL (≈ 3.09 µM); in series [4], 1.85 nM. Besides, in series [3] (setting [5]), the “Effects on the amount of proteins in the cells” value is reported as “nor were there any effects”. The “Effects on the number of grown cells” value in series [3] (setting [5]) was “nor were there any effects”. Also, the “Morphological changes in the cells by microscopic inspection” value in series [3] (setting [5]) is given as “no morphological changes”.

With `Oc1ccc(O)cc1` [Hydroquinone, reference compound], the Whitening effect result in series [2] (1.0 wt % test agent) is reported as “Good (50–80% of subjects exhibited a complete response or partial response)”.

With `O=c1cc(CO)occ1O` [Kojic acid, reference compound], the Whitening effect entry in series [2] (1.0 wt % test agent) is “Fair (30–50% of subjects exhibited a complete response or partial response)”.
